Results taken from ChEMBL document CHEMBL1201862, “PubChem BioAssay data set” (2004).
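Values below derive from 48-hour exposures of cells grown in 96-well plates, with endpoints linearly interpolated between the two concentrations bracketing the appropriate inhibition level. GI50: concentration for 50% inhibition of growth.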 Active and inactive are the calls of the source. Cut-off read from the data, not from the text of the source: active = GI50 up to about 1.1 µM and inactive = higher.

How the values were obtained:
Experiment in all cases: NCI tumour cell line growth inhibition, 48 h
OVCAR-4 = test system: OVCAR-4
SK-MEL-5 = test system: SK-MEL-5
NCI/ADR-RES = test system: NCI/ADR-RES
DU-145 = test system: DU-145
SK-MEL-28 = test system: SK-MEL-28
EKVX = test system: EKVX
786-0 = test system: 786-0
SF-268 = test system: SF-268
SK-MEL-2 = test system: SK-MEL-2
MOLT-4 = test system: MOLT-4
HCT-116 = test system: HCT-116
SNB-19 = test system: SNB-19
SNB-75 = test system: SNB-75
UACC-62 = test system: UACC-62
KM12 = test system: KM12
HOP-92 = test system: HOP-92
NCI-H226 = test system: NCI-H226
T47D = test system: T47D
CAKI-1 = test system: CAKI-1

Structure (SMILES)	GI50 (OVCAR-4)	GI50 (SK-MEL-5)	GI50 (NCI/ADR-RES)	GI50 (DU-145)	GI50 (SK-MEL-28)	GI50 (EKVX)	GI50 (786-0)	GI50 (SF-268)	GI50 (SK-MEL-2)	GI50 (MOLT-4)	GI50 (HCT-116)	GI50 (SNB-19)	GI50 (SNB-75)	GI50 (UACC-62)	GI50 (KM12)	GI50 (HOP-92)	GI50 (NCI-H226)	GI50 (T47D)	GI50 (CAKI-1)
CCCC(=O)Nc1cn(COC)c(C(=O)N2C[C@@H]3C[C@]34C2=CC(=O)c2[nH]cc(C)c24)n1	7.82 µM (inactive)	4.36 µM (inactive)	7.87 µM (inactive)	1.53 µM (inactive)	14.5 µM (inactive)	> 5 µM (inactive)	5.15 µM (inactive)	5.31 µM (inactive)	8.47 µM (inactive)	0.857 µM (active)	7.21 µM (inactive)	18.5 µM (inactive)	10.2 µM (inactive)	7.62 µM (inactive)	> 5 µM (inactive)	9.31 µM (inactive)	10.5 µM (inactive)	4.85 µM (inactive)	1.91 µM (inactive)
COc1ccc(N2C(=O)C3c4[nH]c5ccc(C)cc5c4C4CCC(C(C)C)CC4C3C2=O)cc1 (stereo not drawn)	> 100 µM (inactive)	> 100 µM (inactive)	> 100 µM (inactive)	> 100 µM (inactive)	> 100 µM (inactive)	> 100 µM (inactive)	> 100 µM (inactive)	75.5 µM (inactive)	> 100 µM (inactive)	> 100 µM (inactive)	> 100 µM (inactive)	> 100 µM (inactive)	27.7 µM (inactive)	> 100 µM (inactive)	> 100 µM (inactive)	> 100 µM (inactive)	> 100 µM (inactive)	> 100 µM (inactive)	> 100 µM (inactive)
CCOC(=O)C#Cc1cccc(C#CC(=O)OCC)c1	3.59 µM (inactive)	4.25 µM (inactive)	6.05 µM (inactive)	6.52 µM (inactive)	5.33 µM (inactive)	1.14 µM (inactive)	4.47 µM (inactive)	6.52 µM (inactive)	2.19 µM (inactive)	–	2.37 µM (inactive)	5.71 µM (inactive)	0.0248 µM (active)	4.94 µM (inactive)	6.65 µM (inactive)	5.87 µM (inactive)	6.58 µM (inactive)	42.3 µM (inactive)	4.93 µM (inactive)
O=C1C(c2ccccc2)=[N+]([O-])c2ccccc21	4.04 µM (inactive)	11.1 µM (inactive)	17.7 µM (inactive)	15.7 µM (inactive)	17.1 µM (inactive)	15.1 µM (inactive)	17.7 µM (inactive)	14.1 µM (inactive)	14.7 µM (inactive)	21.6 µM (inactive)	5.78 µM (inactive)	19 µM (inactive)	17 µM (inactive)	15.5 µM (inactive)	19.8 µM (inactive)	6.79 µM (inactive)	17.1 µM (inactive)	1.97 µM (inactive)	–
COc1cccc(Cc2cc(=O)c3ccc(C)nc3[nH]2)c1	–	> 100 µM (inactive)	> 100 µM (inactive)	> 100 µM (inactive)	> 100 µM (inactive)	> 100 µM (inactive)	> 100 µM (inactive)	> 100 µM (inactive)	> 100 µM (inactive)	41.3 µM (inactive)	> 100 µM (inactive)	> 100 µM (inactive)	93.8 µM (inactive)	> 100 µM (inactive)	> 100 µM (inactive)	> 100 µM (inactive)	> 100 µM (inactive)	> 100 µM (inactive)	> 100 µM (inactive)
O=C1C=CC(=O)C(CNc2ccc(C(=O)OC34CC5CC(CC(C5)C3)C4)cc2)=C1Br	5.19 µM (inactive)	9.31 µM (inactive)	3.82 µM (inactive)	23.6 µM (inactive)	–	6.46 µM (inactive)	13.2 µM (inactive)	12.2 µM (inactive)	15.4 µM (inactive)	2.24 µM (inactive)	12.7 µM (inactive)	15.6 µM (inactive)	6.15 µM (inactive)	7.38 µM (inactive)	5.62 µM (inactive)	2.34 µM (inactive)	16.7 µM (inactive)	3.33 µM (inactive)	3.52 µM (inactive)
COC(=O)c1ccc(/N=N/N(C)COc2ccc(C#N)cc2)cc1	> 100 µM (inactive)	45.1 µM (inactive)	67 µM (inactive)	40.4 µM (inactive)	> 100 µM (inactive)	> 100 µM (inactive)	> 100 µM (inactive)	> 100 µM (inactive)	> 100 µM (inactive)	82.2 µM (inactive)	79.4 µM (inactive)	> 100 µM (inactive)	49.2 µM (inactive)	–	70.8 µM (inactive)	34.4 µM (inactive)	> 100 µM (inactive)	74 µM (inactive)	69 µM (inactive)
